# Reference: ChEMBL document CHEMBL1145546, “Interactive effects of polymethoxy flavones from Citrus on cell growth inhibition in human neuroblastoma SH-SY5Y cells” (Bioorg Med Chem, 2008)
# Activity calls are given as the source filed them. The calls are words filed in the database; no cut-off is given here.
# Experiments:
# SH-SY5Y [1] = experiment: Growth inhibition of human SHSY5Y cells assessed as viable cells after 48 hrs by Trypan blue dye exclusion test; format: functional, cell-based
# SH-SY5Y [2] = experiment: Elevation of phosphorylated p38 level in hydrogen peroxide-treated human SHSY5Y cells at 30 uM after 3 hrs by Western blot analysis; format: functional, cell-based
# SH-SY5Y [3] = experiment: Reduction of hydrogen peroxide-induced apoptotic cell death in human SHSY5Y cells after 12 hrs; format: functional; set-up: scale not given: the % may be the effect or the level left
# SH-SY5Y [4] = experiment: Elevation of phosphorylated ERK level in hydrogen peroxide-treated human SHSY5Y cells at 30 uM after 3 hrs by Western blot analysis; format: functional, cell-based
# SH-SY5Y [5] = experiment: Elevation of phosphorylated JNk level in hydrogen peroxide-treated human SHSY5Y cells at 30 uM after 3 hrs by Western blot analysis; format: functional, cell-based
# SH-SY5Y [6] = experiment: Reduction of hydrogen peroxide-induced apoptotic cell death in human SHSY5Y cells assessed as DNA ladder formation after 12 hrs; format: functional, cell-based
IC50 (SH-SY5Y [1]) [µM],SMILES,Activity (SH-SY5Y [2]),Activity (SH-SY5Y [3]) [%],Activity (SH-SY5Y [4]),Activity (SH-SY5Y [5]),Activity (SH-SY5Y [6])
41.2,COc1ccc(-c2cc(=O)c3c(OC)c(OC)c(OC)c(OC)c3o2)cc1 [TANGERETIN],,,,,
32.5,COc1ccc(-c2cc(=O)c3c(O)c(OC)c(OC)c(OC)c3o2)cc1OC [5-DEMETHYLNOBILETIN],,,,,
,COc1ccc(-c2cc(=O)c3c(OC)c(OC)c(OC)c(OC)c3o2)cc1OC [NOBILETIN],Active,30,Active,Active,Active
